Reference: patent US5767291A, “Phenyl heterocycles as cox-2 inhibitors” (Merck Frosst Canada, Inc., priority 1996, dated 1998)
One block for each molecule: values may come before it.

Tests used:
cyclooxygenase-2 (COX-2) [1] = target: T1, cyclooxygenase-2 (COX-2) (Homo sapiens, UniProt P35354); experiment: Whole cell cyclooxygenase assay, COX-2 (PGE2 synthesis in response to arachidonic acid, radioimmunoassay), human osteosarcoma 143 cells; type: cell-based; details: read-out: Whole Cells COX-2 % inhib.; for inhibition at 0.01 µM: 10 nM; for inhibition at 0.04 µM: 40 nM; for inhibition at 0.16 µM: 160 nM; for inhibition at 0.08 µM: 80 nM
T1 construct: human osteosarcoma 143 cells (which specifically express cyclooxygenase-2); endogenous in cells; host or cells: human osteosarcoma 143 cells (whole cells, and microsomes prepared from them)
T1 sequence (P35354 18-604): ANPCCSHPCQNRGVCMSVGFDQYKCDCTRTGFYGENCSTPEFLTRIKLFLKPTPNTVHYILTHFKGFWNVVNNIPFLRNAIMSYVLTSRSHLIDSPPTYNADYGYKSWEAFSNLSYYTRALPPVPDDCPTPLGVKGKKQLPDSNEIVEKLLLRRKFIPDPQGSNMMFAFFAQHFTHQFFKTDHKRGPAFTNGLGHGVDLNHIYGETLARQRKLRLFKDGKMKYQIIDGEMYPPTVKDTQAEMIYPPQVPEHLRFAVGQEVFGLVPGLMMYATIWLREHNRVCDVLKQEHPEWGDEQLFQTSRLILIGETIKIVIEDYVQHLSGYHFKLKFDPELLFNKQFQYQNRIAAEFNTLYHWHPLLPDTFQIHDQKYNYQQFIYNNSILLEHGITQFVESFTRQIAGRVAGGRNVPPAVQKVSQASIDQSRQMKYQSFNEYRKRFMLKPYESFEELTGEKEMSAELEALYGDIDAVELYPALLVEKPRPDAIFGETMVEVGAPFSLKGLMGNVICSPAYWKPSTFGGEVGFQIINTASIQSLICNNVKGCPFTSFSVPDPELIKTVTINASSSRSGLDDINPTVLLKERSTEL
Method: (§1) Compounds were tested as inhibitors of cyclooxygenase activity in whole cell and microsomal cyclooxygenase assays. Both of these assays measured prostaglandin E2 (PGE2) synthesis in response to arachidonic acid, using a radioimmunoassay. Cells used for whole cell assays, and from which microsomes were prepared for microsomal assays, were human osteosarcoma 143 cells (which specifically express cyclooxygenase-2) and human U-937 cells (which specifically express cyclooxygenase-1). In these assays, 100% activity is defined as the difference between prostaglandin E2 synthesis in the absence and presence of arachidonate addition.

cyclooxygenase-1 (COX-1) [2] = target: T2, cyclooxygenase-1 (COX-1) (Homo sapiens, UniProt P23219); experiment: Whole cell cyclooxygenase assay, COX-1 (PGE2 synthesis in response to arachidonic acid, radioimmunoassay), human U-937 cells; type: cell-based; details: read-out: Whole Cells COX-1 % inhib.; for inhibition at 0.1 µM: 100 nM; for inhibition at 0.01 µM: 10 nM
T2 construct: human U-937 cells (which specifically express cyclooxygenase-1); endogenous in cells; host or cells: human U-937 cells (whole cells, and microsomes prepared from them)
T2 sequence (P23219 24-599): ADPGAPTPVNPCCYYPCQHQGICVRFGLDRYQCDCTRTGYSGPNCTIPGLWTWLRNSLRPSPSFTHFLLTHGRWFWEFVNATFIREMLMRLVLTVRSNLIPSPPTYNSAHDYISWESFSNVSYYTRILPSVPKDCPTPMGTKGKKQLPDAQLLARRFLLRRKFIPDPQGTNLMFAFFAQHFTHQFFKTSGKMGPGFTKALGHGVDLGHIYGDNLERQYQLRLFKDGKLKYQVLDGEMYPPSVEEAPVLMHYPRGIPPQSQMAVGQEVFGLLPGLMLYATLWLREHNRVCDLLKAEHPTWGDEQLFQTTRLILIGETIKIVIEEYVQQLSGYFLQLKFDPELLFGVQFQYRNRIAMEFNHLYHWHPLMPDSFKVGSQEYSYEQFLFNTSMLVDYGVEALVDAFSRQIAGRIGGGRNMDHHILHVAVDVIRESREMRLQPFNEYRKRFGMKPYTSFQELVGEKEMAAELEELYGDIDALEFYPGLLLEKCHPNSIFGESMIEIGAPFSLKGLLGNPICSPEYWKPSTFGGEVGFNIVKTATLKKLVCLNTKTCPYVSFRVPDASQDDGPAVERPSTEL
Method: as §1

cyclooxygenase-2 (COX-2) [3] = target: T1, cyclooxygenase-2 (COX-2); experiment: Microsomal cyclooxygenase assay, COX-2 (PGE2 synthesis, microsomes of human osteosarcoma 143 cells); type: biochemical; details: for inhibition at 0.1 µM: 100 nM; for inhibition at 0.1 µM / inhibition at 0.01 µM / inhibition at 1 µM: read-out: Microsomes COX-2 % inhib.; for inhibition at 1 µM: 1000 nM
Method: as §1

cyclooxygenase-1 (COX-1) [4] = target: T2, cyclooxygenase-1 (COX-1); experiment: Microsomal cyclooxygenase assay, COX-1 (PGE2 synthesis, microsomes of human U-937 cells); type: biochemical; details: for inhibition at 0.1 µM: 100 nM; for inhibition at 0.1 µM / inhibition at 0.01 µM / inhibition at 1 µM: read-out: Microsomes COX-1 % inhib.; for inhibition at 1 µM: 1000 nM
Method: as §1

inhibition at 0.1 µM (cyclooxygenase-2 (COX-2) [1]; 100 nM): 96%
inhibition at 0.1 µM (cyclooxygenase-1 (COX-1) [2]): 12%
inhibition at 0.1 µM (cyclooxygenase-2 (COX-2) [3]): 53%
inhibition at 0.1 µM (cyclooxygenase-1 (COX-1) [4]): 8%
SMILES: CC(C)(O)c1cc(-c2ccc(S(N)(=O)=O)cc2)c(-c2ccc(F)cc2)s1 [Example 1]

inhibition at 0.01 µM (cyclooxygenase-2 (COX-2) [1]): 69%
inhibition at 0.01 µM (cyclooxygenase-1 (COX-1) [2]): 0%
inhibition at 0.01 µM (cyclooxygenase-2 (COX-2) [3]; 10 nM): 49%
inhibition at 0.01 µM (cyclooxygenase-1 (COX-1) [4]; 10 nM): 25%
SMILES: NS(=O)(=O)c1ccc(-c2ccsc2-c2ccc(F)cc2)cc1 [Example 2, 3-(4-(Aminosulfonyl)phenyl)-2-(4-fluorophenyl)thiophene]

inhibition at 0.01 µM (cyclooxygenase-2 (COX-2) [1]): 42%
inhibition at 0.1 µM (cyclooxygenase-2 (COX-2) [1]; 100 nM): 100%
inhibition at 0.01 µM (cyclooxygenase-2 (COX-2) [3]; 10 nM): 33%
inhibition at 0.1 µM (cyclooxygenase-2 (COX-2) [3]): 76%
inhibition at 0.01 µM (cyclooxygenase-1 (COX-1) [4]; 10 nM): 19%
inhibition at 0.1 µM (cyclooxygenase-1 (COX-1) [4]): 12%
SMILES: CC(C)c1cc(-c2ccc(S(N)(=O)=O)cc2)c(-c2ccc(F)cc2)s1 [Example 3, 3-(4-(Aminosulfonyl)phenyl)-2-(4-fluorophenyl)-5-(2-propyl)thiophene]

inhibition at 0.01 µM (cyclooxygenase-2 (COX-2) [3]; 10 nM): 47%
inhibition at 0.01 µM (cyclooxygenase-1 (COX-1) [4]; 10 nM): 2%
SMILES: NS(=O)(=O)c1ccc(-c2ccsc2C2CCCCC2)cc1 [Example 4, 3-(4-(Aminosulfonyl)phenyl)-2-cyclohexylthiophene]

inhibition at 0.01 µM (cyclooxygenase-2 (COX-2) [1]): 0%
inhibition at 0.01 µM (cyclooxygenase-1 (COX-1) [2]): 0%
inhibition at 0.01 µM (cyclooxygenase-2 (COX-2) [3]; 10 nM): 43%
inhibition at 0.01 µM (cyclooxygenase-1 (COX-1) [4]; 10 nM): 31%
SMILES: CS(=O)(=O)c1ccc(-c2cc(C(=O)O)sc2-c2ccc(C(=O)O)cc2)cc1 [Example 5, 5-(4-Carboxyphenyl)-4-(4-(methylsulfonyl)phenyl)thiophene-2-carboxylic acid]

inhibition at 0.1 µM (cyclooxygenase-2 (COX-2) [1]; 100 nM): 78%
inhibition at 0.1 µM (cyclooxygenase-2 (COX-2) [3]): 19%
inhibition at 0.1 µM (cyclooxygenase-1 (COX-1) [4]): 16%
SMILES: Cc1nc(-c2ccc(F)cc2)c(-c2ccc(S(C)(=O)=O)cc2)s1 [Example 6, 4-(4-Fluorophenyl)-2-methyl-5-(4-(methylsulfonyl)phenyl)thiazole]

inhibition at 0.1 µM (cyclooxygenase-2 (COX-2) [1]; 100 nM): 74%
inhibition at 0.1 µM (cyclooxygenase-1 (COX-1) [2]): 0%
inhibition at 1 µM (cyclooxygenase-2 (COX-2) [3]): 58%
inhibition at 1 µM (cyclooxygenase-1 (COX-1) [4]): 16%
SMILES: CS(=O)(=O)c1ccc(C2=C(c3ccc(F)cc3)C(=O)CC2)cc1 [Example 7, 2-(4-Fluorophenyl)-3-(4-(methylsulfonyl)phenyl)-2-cyclopenten-1-one]

SMILES: CS(=O)(=O)c1ccc(C2=C(c3ccc(F)cc3)C(=O)OC2)cc1 [Example 9, 3-(4-Fluorophenyl)-4-(4-(methylsulfonyl)phenyl)-2-(5H)-furanone]
inhibition at 0.1 µM (cyclooxygenase-2 (COX-2) [1]): 83%
inhibition at 0.1 µM (cyclooxygenase-2 (COX-2) [3]): 37%

inhibition at 0.1 µM (cyclooxygenase-2 (COX-2) [1]; 100 nM): 95%
inhibition at 0.1 µM (cyclooxygenase-2 (COX-2) [3]): 71%
inhibition at 0.1 µM (cyclooxygenase-1 (COX-1) [4]): 12%
SMILES: NS(=O)(=O)c1ccc(C2=C(c3ccc(F)cc3)C(=O)OC2)cc1 [Example 10, 3-(4-Fluorophenyl)-4-(4-(aminosulfonyl)phenyl)-2-(2H)-furanone]

inhibition at 0.1 µM (cyclooxygenase-2 (COX-2) [1]; 100 nM): 39%
inhibition at 0.1 µM (cyclooxygenase-2 (COX-2) [3]): 46%
inhibition at 0.1 µM (cyclooxygenase-1 (COX-1) [4]): 7%
SMILES: CS(=O)(=O)c1ccc(-c2cocc2-c2ccc(F)cc2)cc1 [Example 11, 3-(4-Fluorophenyl)-4-(4-(methylsulfonyl)phenyl)furan]

inhibition at 0.01 µM (cyclooxygenase-2 (COX-2) [1]): 41%
inhibition at 0.1 µM (cyclooxygenase-2 (COX-2) [1]; 100 nM): 84%
Microsomes COX-2 % inhib. (cyclooxygenase-2 (COX-2) [3]; 10 nM, 0.01 µM): 58%
inhibition at 0.01 µM (cyclooxygenase-2 (COX-2) [3]; 10 nM): 52%
Microsomes COX-1 % inhib. (cyclooxygenase-1 (COX-1) [4]; 10 nM, 0.01 µM): 10%
inhibition at 0.01 µM (cyclooxygenase-1 (COX-1) [4]; 10 nM): 7%
SMILES: NS(=O)(=O)c1ccc(-c2sccc2-c2ccc(F)cc2)cc1 [Example 13, 2-((4-aminosulfonyl)phenyl)-3-(4-fluorophenyl)thiophene]

inhibition at 0.01 µM (cyclooxygenase-2 (COX-2) [1]): 73%
inhibition at 0.1 µM (cyclooxygenase-2 (COX-2) [1]; 100 nM): 89%
inhibition at 1 µM (cyclooxygenase-2 (COX-2) [1]; 1000 nM): 101%
inhibition at 0.01 µM (cyclooxygenase-2 (COX-2) [3]; 10 nM): 45%
inhibition at 0.1 µM (cyclooxygenase-2 (COX-2) [3]): 63%
inhibition at 1 µM (cyclooxygenase-2 (COX-2) [3]): 69%
inhibition at 0.01 µM (cyclooxygenase-1 (COX-1) [4]; 10 nM): 29%
inhibition at 0.1 µM (cyclooxygenase-1 (COX-1) [4]): 0%
inhibition at 1 µM (cyclooxygenase-1 (COX-1) [4]): 0%
SMILES: O=C(NS(=O)(=O)c1ccc(-c2ccsc2-c2ccc(F)cc2)cc1)C(F)(F)F [Example 14, 3-(4-(Trifluoroacetylaminosulfonyl)phenyl)-2-(4-fluorophenyl)thiophene]

inhibition at 0.01 µM (cyclooxygenase-2 (COX-2) [1]): 76%
inhibition at 0.04 µM (cyclooxygenase-2 (COX-2) [1]): 94%
inhibition at 0.16 µM (cyclooxygenase-2 (COX-2) [1]): 97%
SMILES: CS(=O)(=O)c1ccc(C2=C(c3ccc(Cl)c(F)c3)C(=O)OC2)cc1 [Example 46, 3-(4-Chloro-3-fluorophenyl)-4-(4-(methylsulfonyl)phenyl)-2-(5H)-furanone]

inhibition at 0.01 µM (cyclooxygenase-2 (COX-2) [1]): 61%
inhibition at 0.04 µM (cyclooxygenase-2 (COX-2) [1]): 74%
inhibition at 0.16 µM (cyclooxygenase-2 (COX-2) [1]): 101%
SMILES: CS(=O)(=O)c1ccc(C2=C(c3ccc(Br)c(F)c3)C(=O)OC2)cc1 [Example 47, 3-(4-Bromo-3-fluorophenyl)-4-(4-(methylsulfonyl)phenyl)-2-(5H)-furanone]

inhibition at 0.01 µM (cyclooxygenase-2 (COX-2) [1]): 7%
inhibition at 0.16 µM (cyclooxygenase-2 (COX-2) [1]): 47%
SMILES: CS(=O)(=O)c1ccc(C2=C(c3ccc(Br)cc3Cl)C(=O)OC2)cc1 [Example 48, 3-(4-Bromo-2-chlorophenyl)-4-(4-(methylsulfonyl)phenyl)-2-(5H)-furanone]

inhibition at 0.01 µM (cyclooxygenase-2 (COX-2) [1]): 53%
inhibition at 0.04 µM (cyclooxygenase-2 (COX-2) [1]): 91%
inhibition at 0.08 µM (cyclooxygenase-2 (COX-2) [1]): 99%
SMILES: CS(=O)(=O)c1ccc(C2=C(c3ccc4ccccc4c3)C(=O)OC2)cc1 [Example 49, 3-(2-Naphthyl)-4-(4-(methylsulfonyl)phenyl)-2-(5H)-furanone]

inhibition at 0.08 µM (cyclooxygenase-2 (COX-2) [1]): 42%
SMILES: CS(=O)(=O)c1ccc(C2=C(c3ccc4cccnc4c3)C(=O)OC2)cc1 [Example 50, 3-(7-Quinolinyl)-4-(4-(methylsulfonyl)phenyl)-2-(5H)-furanone]

inhibition at 0.005 µM (cyclooxygenase-2 (COX-2) [1]; 5 nM): 49%
inhibition at 0.02 µM (cyclooxygenase-2 (COX-2) [1]; 20 nM): 95%
inhibition at 0.04 µM (cyclooxygenase-2 (COX-2) [1]): 102%
SMILES: NS(=O)(=O)c1ccc(C2=C(c3ccc(Cl)c(Cl)c3)C(=O)OC2)cc1 [Example 51, 3-(3 4-Dichlorophenyl)-4-(4-(aminosulfonyl)phenyl)-2-(2H)-furanone]

inhibition at 0.01 µM (cyclooxygenase-2 (COX-2) [1]): 50%
inhibition at 0.04 µM (cyclooxygenase-2 (COX-2) [1]): 82%
inhibition at 0.16 µM (cyclooxygenase-2 (COX-2) [1]): 102%
SMILES: NS(=O)(=O)c1ccc(C2=C(c3ccc(F)c(F)c3)C(=O)OC2)cc1 [Example 52, 3-(3,4-Difluorophenyl)-4-(4-(aminosulfonyl)phenyl)-2-(2H)-furanone]

inhibition at 0.01 µM (cyclooxygenase-2 (COX-2) [1]): 54%
inhibition at 0.04 µM (cyclooxygenase-2 (COX-2) [1]): 96%
inhibition at 0.16 µM (cyclooxygenase-2 (COX-2) [1]): 102%
SMILES: COc1ccc(C2=C(c3ccc(S(N)(=O)=O)cc3)COC2=O)cc1Cl [Example 53, 3-(3-Chloro-4-methoxyphenyl)-4-(4-(aminosulfonyl)phenyl)-2-(2H)-furanone]

inhibition at 0.01 µM (cyclooxygenase-2 (COX-2) [1]): 81%
inhibition at 0.08 µM (cyclooxygenase-2 (COX-2) [1]): 91%
inhibition at 0.16 µM (cyclooxygenase-2 (COX-2) [1]): 99%
SMILES: COc1ccc(C2=C(c3ccc(S(N)(=O)=O)cc3)COC2=O)cc1Br [Example 54, 3-(3-Bromo-4-methoxyphenyl)-4-(4-(aminosulfonyl)phenyl)-2-(2H)-furanone]
